Results reported in patent publication US11331393B2, “Renal-homing peptide conjugates and methods of use thereof” (BLAZE BIOSCIENCE, INC., priority 2017, dated 2022).
Ends that are not written are not given here.

Test system: kidneys
Conditions: unlabeled competitor 100 or 2000 nmol co-injected with 2 nmol SEQ ID NO: 4-AF647; 1 hour

## KKEEEKKEEEKKEEEKK [SEQ ID NO: 571]
  competition with uptake of the peptide of SEQ ID NO: 4 in kidneys: failed to compete
